Laboratory results reported in patent US9221825B2, “Pyrazolopyrimidinone compound and imidazo triazone compound for treating erectile dysfunction” (Zhejiang Dade Pharmaceutical Group Co., Ltd., priority 2011, dated 2015).

Tested on: adult sexual mature male Sprague-Dawley rats
Test: Efficacy test of the drug for anti-Erectile Dysfunction (copulation test)
Format: in vivo, rat
Conditions: for Catching times / Latent period of catch behavior / Riding times: intragastric administration
[1] = male Sprague-Dawley rats, dosage 4.4 mg/kg bw
[2] = animal experiments, in comparison with Sildenafil
[3] = male Sprague-Dawley rats, dosage 2.2 mg/kg bw
[4] = male Sprague-Dawley rats, dosage 8.8 mg/kg bw

SMILES | Catching times [1] [times] | Latent period of catch behavior [1] [s] | Riding times [1] [times] | Effective drug duration [2] | Onset time [2] | Effect on catching times in comparison with the solution control group (male Sprague-Dawley rats, P<0.05) | Catching times [3] [times] | Latent period of catch behavior [3] [s] | Riding times [3] [times] | Catching times [4] [times] | Latent period of catch behavior [4] [s] | Riding times [4] [times]
CCCc1nn(C)c2c(=O)[nH]c(-c3cc(S(=O)(=O)N4CCN(C)CC4)ccc3OCC)nc12 [Sildenafil, reference compound] | 27 ± 6 | 12.5 ± 6.5 | 24 ± 7 |  |  |  |  |  |  |  |  | 
CCCc1nn(C)c2c(=O)[nH]c(-c3cc(S(=O)(=O)N4CCCN(C)CC4)ccc3OCC)nc12.O=C(O)CC(O)(CC(=O)O)C(=O)O [ED9001, 5-[2-ethoxy-5-(4-methyl-1-homopiperazinylsulfonyl)]-phenyl-1-methyl-3-n-propyl-1,6-dihydro-7H-pyrazolo[4,3-d]pyrimidine-7-one citrate] | 26 ± 9 | 14.4 ± 7.5 | 21 ± 7 | longer | shorter | distinct effect on improving catching times | 31 ± 9 | 12.1 ± 3.6 | 24 ± 7 | 32 ± 9 | 14.2 ± 4.9 | 27 ± 10
